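Five compound concentrations were applied to cells in 96-well plates for 48 hours; endpoints were derived by simple linear interpolation of the resulting dose-response curve. At the GI50, growth is halved. The concentration for full growth arrest is given as TGI.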
Columns and labels:
Assay in all cases: NCI anticancer screen, dose series, 48 h
NCI-H522 lung = tested on: NCI-H522 lung
CAKI-1 renal = tested on: CAKI-1 renal
NCI-H460 lung = tested on: NCI-H460 lung
HOP-92 NSCLC = tested on: HOP-92 NSCLC
SR leukemia = tested on: SR leukemia
HCT-116 colon = tested on: HCT-116 colon
UACC-62 melanoma = tested on: UACC-62 melanoma
OVCAR-8 ovarian = tested on: OVCAR-8 ovarian
HL-60(TB) leukemia = tested on: HL-60(TB) leukemia
DU-145 prostate = tested on: DU-145 prostate

Row | Structure (SMILES) | TGI (NCI-H522 lung) | TGI (CAKI-1 renal) | TGI (NCI-H460 lung) | TGI (HOP-92 NSCLC) | TGI (SR leukemia) | TGI (HCT-116 colon) | TGI (UACC-62 melanoma) | TGI (OVCAR-8 ovarian) | TGI (HL-60(TB) leukemia) | GI50 (NCI-H522 lung) | GI50 (DU-145 prostate) | TGI (DU-145 prostate) | GI50 (CAKI-1 renal) | GI50 (NCI-H460 lung) | GI50 (HOP-92 NSCLC) | GI50 (UACC-62 melanoma) | GI50 (OVCAR-8 ovarian) | GI50 (HL-60(TB) leukemia) | GI50 (HCT-116 colon)
1 | CCCCc1c2c(nc3c1CCc1cc4c(nc1-3)-c1nc3c(c(CCCC)c1CC4)CCC/C3=C\c1ccccc1)/C(=C/c1ccccc1)CCC2 | > 100 µM | > 100 µM | > 100 µM | > 100 µM | > 100 µM | > 100 µM | > 100 µM | > 100 µM | > 100 µM | – | – | – | – | – | – | – | – | – | –
2 | N#Cc1c(NC(=O)c2ccccc2)sc2c1CCC(=O)C2 | 4.66 µM | 1.86 µM | > 100 µM | 2.72 µM | – | – | 1.93 µM | 45 µM | 2.96 µM | 0.358 µM | 2.98 µM | > 100 µM | 0.38 µM | 2.22 µM | 0.821 µM | 0.404 µM | 1.27 µM | 0.309 µM | –
3 | COc1cccc(NC(=O)CSc2nnc(-c3ccc(N=Cc4ccc(Cl)cc4)cc3)o2)c1 | 32.9 µM | – | 60.6 µM | – | > 100 µM | 36.3 µM | 35.1 µM | 58.4 µM | 87.8 µM | – | – | – | – | – | – | – | – | – | –
4 | O=C(c1ccc2ccccc2c1)C1S(=O)(=O)OCCOS1(=O)=O | – | > 100 µM | > 100 µM | – | > 100 µM | > 100 µM | – | > 100 µM | > 100 µM | – | – | > 100 µM | – | – | – | – | – | – | –
5 | OC(c1ccc(Cl)cc1)(c1ccc(Cl)cc1)C(O)(c1ccc(Cl)cc1)c1ccc(Cl)cc1 | – | – | > 100 µM | – | – | > 100 µM | > 100 µM | – | – | – | – | – | – | 3.11 µM | – | 2.41 µM | – | – | 2.02 µM
6 | Nc1nc(Cl)cc(N=Nc2ccccc2)n1 | > 100 µM | > 100 µM | – | 7.53 µM | > 100 µM | 32.2 µM | > 100 µM | 97.6 µM | 75 µM | – | – | > 100 µM | – | – | – | – | – | – | –
7 | CC(=O)NC1C(CO)O[C@@H]2OC(C)(C)O[C@H]12 (stereo partly drawn) | > 100 µM | > 100 µM | > 100 µM | > 100 µM | – | > 100 µM | > 100 µM | > 100 µM | > 100 µM | – | – | – | – | – | – | – | – | – | –
8 | Cc1ccc(S(=O)(=O)n2cncc2CO)cc1 | > 100 µM | > 100 µM | > 100 µM | – | > 100 µM | > 100 µM | > 100 µM | > 100 µM | > 100 µM | – | – | > 100 µM | – | – | – | – | – | – | –
9 | CCCn1c(C23CC4CC(CC(C4)C2)C3)nc2ccc(Cl)cc2c1=O | > 100 µM | > 100 µM | > 100 µM | > 100 µM | – | > 100 µM | > 100 µM | > 100 µM | > 100 µM | – | – | 95.9 µM | – | – | – | – | – | – | –
10 | c1ccc(CCN2CCCCCC2)nc1 | > 100 µM | > 100 µM | > 100 µM | > 100 µM | – | > 100 µM | > 100 µM | > 100 µM | – | – | – | > 100 µM | – | – | – | – | – | – | –
11 | CNC(=O)CCC(NC(C)=O)C(=O)NC(Cc1ccc(NC(=O)CCCCC(C)=O)cc1)C(=O)NC(CCC(=O)NC)C(=O)NC (stereo not drawn) | > 100 µM | > 100 µM | > 100 µM | > 100 µM | – | > 100 µM | > 100 µM | > 100 µM | > 100 µM | – | – | > 100 µM | – | – | – | – | – | – | –
12 | CN(C)CCOC(=O)COc1ccc(Cl)cc1 | > 100 µM | > 100 µM | > 100 µM | > 100 µM | > 100 µM | > 100 µM | > 100 µM | > 100 µM | – | – | – | > 100 µM | – | – | – | – | – | – | –
13 | Clc1nc(-[n+]2ccc(-c3ccncc3)cc2)nc(Nc2ccccc2)c1Cl | – | – | > 100 µM | > 100 µM | 77.4 µM | > 100 µM | > 100 µM | – | > 100 µM | – | – | > 100 µM | – | – | – | – | – | – | –
14 | CC(NC(=O)/C(=C/c1ccccc1O)NC(=O)c1ccccc1)C(=O)O (stereo not drawn) | 50 µM | 37.2 µM | 64.9 µM | > 100 µM | – | > 100 µM | > 100 µM | 29.1 µM | > 100 µM | – | – | > 100 µM | – | – | – | – | – | – | –
15 | CC(C)(C)N=C1CC(C)(C)c2ccccc2C(=Nc2ccccc2)S1 | 46.7 µM | > 100 µM | > 100 µM | – | – | > 100 µM | > 100 µM | > 100 µM | 36 µM | – | – | – | – | – | – | – | – | – | –
16 | COc1cc(C2C3=C(CCC3=O)Oc3cc4c(cc32)OCO4)cc(OC)c1OC (stereo not drawn) | – | 30.3 µM | > 100 µM | 6.47 µM | – | > 100 µM | > 100 µM | > 100 µM | 0.596 µM | – | – | – | – | – | – | – | – | – | –
17 | CN1CCn2c(Br)ccc2C1=O | > 100 µM | > 100 µM | > 100 µM | – | > 100 µM | > 100 µM | > 100 µM | > 100 µM | > 100 µM | – | – | – | – | – | – | – | – | – | –
18 | C/C(O)=C(\C=N\C(N)=S)C(=O)Nc1ccccc1C | > 100 µM | > 100 µM | > 100 µM | > 100 µM | > 100 µM | > 100 µM | > 100 µM | > 100 µM | – | – | – | > 100 µM | – | – | – | – | – | – | –
19 | Cc1cc2ccccc2c[n+]1CC(O)C[n+]1cc2ccccc2cc1C | > 100 µM | > 100 µM | > 100 µM | > 100 µM | > 100 µM | > 100 µM | > 100 µM | > 100 µM | – | – | – | > 100 µM | – | – | – | – | – | – | –
20 | CC(C)CCC[C@@H](C)[C@H]1CC[C@H]2[C@@H]3CC=C4C[C@@H](OC(=O)c5cccc6c(=O)c7ccccc7[nH]c56)CC[C@]4(C)[C@H]3CC[C@]12C | > 75 µM | – | – | > 75 µM | > 75 µM | – | > 75 µM | > 75 µM | – | – | – | – | – | – | – | – | – | – | –
21 | Cc1c2c3cc(O)ccc3nc-2n(C)c2ccccc12 | – | – | 5.11 µM | 5.21 µM | 21.3 µM | 10.1 µM | 3.21 µM | 10.6 µM | 19.8 µM | – | – | 14.3 µM | – | – | – | – | – | – | –
22 | COc1ccc(/C=C2\Cc3ccccc3C2=O)cc1OC | > 100 µM | > 100 µM | > 100 µM | – | – | – | > 100 µM | > 100 µM | – | – | – | – | – | – | – | – | – | – | –
23 | COc1cc2cc(C(=O)N3CC(CCl)c4c3cc(N)c3ccccc43)[nH]c2cc1OCCN(C)C (stereo not drawn) | – | 0.094 µM | 8.68 µM | 0.01 µM | – | 0.623 µM | 0.00871 µM | 0.0571 µM | – | – | – | 0.0246 µM | – | – | – | – | – | – | –
24 | O=S1(=O)NNC(=NCc2ccc(Cl)cc2)c2ccccc21 | – | > 100 µM | > 100 µM | > 100 µM | – | > 100 µM | > 100 µM | > 100 µM | > 100 µM | – | – | – | – | – | – | – | – | – | –
25 | COC(=O)C(/C(=N/NC(=O)c1ccncc1)C(=O)Nc1ccccc1OC)c1nc2ccc(Cl)cc2[nH]c1=O (stereo not drawn) | > 100 µM | > 100 µM | > 100 µM | > 100 µM | > 100 µM | > 100 µM | > 100 µM | > 100 µM | > 100 µM | – | – | – | – | – | – | – | – | – | –
